Source: patent US9730970B2, “Seaweed extracts, unsaturated aldehydes, and methods of treatment” (University of Florida Research Foundation, Inc., priority 2013, dated 2017)

Tested on: NQO1
Assay: qPCR of NQO1 transcription in IMR-32 cells
Assay type: cell-based, human
Method: IMR-32 cells (1×10^6 cells/well) were seeded in 6-well plates one day before treatment. Cells were treated with variable concentrations of purified compounds 1-4 for 12 h. Total RNA was extracted with the RNeasy Mini Kit (Qiagen). cDNA was synthesized from 2 μg of total RNA by using SuperScript II Reverse Transcriptase (Invitrogen) and Oligo(dT)12-18 primer (Invitrogen). Real-time PCR was performed in triplicate using GAPDH expression as internal control for normalization.

## CCC(Cl)C(O)C(O)/C=C/C=C/C=O (centres unmarked) [Compound 4, 8-chloro-6,7-dihydroxydeca-2,4-dienal]
20 μg/mL, 12 h
  activation of NQO1 transcription: 6.4 fold

## CC(C)(C)c1cc(O)ccc1O [tBHQ, Tert-butylhydroquinone]
Positive control under identical conditions
  activation of NQO1 transcription: 5.9 fold
